Measured values reported in ChEMBL document CHEMBL1201862, “PubChem BioAssay data set” (2004).
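Interpolation was linear, between the two tested concentrations surrounding the appropriate level; five concentrations were tested over 48 hours in 96-well plates. GI50 marks 50% less growth.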 The source made the active and inactive calls. No stated cut-off is given here; in the data, active = GI50 up to about 1.1 µM and inactive = higher. Peptide text beside a SMILES is read from it. * marks the point of attachment. Cbz = O=C(OCc1ccccc1)*

Columns and labels:
Test in all cases: inhibition of tumour cell growth, NCI panel, 48 h
K562 = tested on: K562
NCI-H226 = tested on: NCI-H226
SNB-19 = tested on: SNB-19
OVCAR-5 = tested on: OVCAR-5
Hs-578T = tested on: Hs-578T
DU-145 = tested on: DU-145
MDA-MB-231 = tested on: MDA-MB-231
HT-29 = tested on: HT-29
KM12 = tested on: KM12
HL-60 = tested on: HL-60
RXF 393 = tested on: RXF 393
SR = tested on: SR
TK-10 = tested on: TK-10
ACHN = tested on: ACHN
PC-3 = tested on: PC-3
EKVX = tested on: EKVX
UO-31 = tested on: UO-31
MCF7 = tested on: MCF7
SW-620 = tested on: SW-620
OVCAR-3 = tested on: OVCAR-3

Row | SMILES | GI50 (K562) | GI50 (NCI-H226) | GI50 (SNB-19) | GI50 (OVCAR-5) | GI50 (Hs-578T) | GI50 (DU-145) | GI50 (MDA-MB-231) | GI50 (HT-29) | GI50 (KM12) | GI50 (HL-60) | GI50 (RXF 393) | GI50 (SR) | GI50 (TK-10) | GI50 (ACHN) | GI50 (PC-3) | GI50 (EKVX) | GI50 (UO-31) | GI50 (MCF7) | GI50 (SW-620) | GI50 (OVCAR-3)
1 | Cc1ccc(OP(=O)(Oc2ccc(C)cc2)N2C=Cc3ccccc3C2C#N)cc1 (stereo not given) | > 100 µM (inactive) | > 100 µM (inactive) | > 100 µM (inactive) | > 100 µM (inactive) | 70.5 µM (inactive) | > 100 µM (inactive) | > 100 µM (inactive) | > 100 µM (inactive) | > 100 µM (inactive) | > 100 µM (inactive) | > 100 µM (inactive) | > 100 µM (inactive) | > 100 µM (inactive) | > 100 µM (inactive) | > 100 µM (inactive) | > 100 µM (inactive) | > 100 µM (inactive) | > 100 µM (inactive) | > 100 µM (inactive) | > 100 µM (inactive)
2 | O=C(C1=CCC2(CC1)OCCO2)N(Cc1ccccc1)c1ccccc1I | 43.2 µM (inactive) | 19.9 µM (inactive) | 18.9 µM (inactive) | 18.1 µM (inactive) | 0.181 µM (active) | 32.8 µM (inactive) | 20 µM (inactive) | 17.9 µM (inactive) | 14.1 µM (inactive) | 18 µM (inactive) | 28.3 µM (inactive) | 12.8 µM (inactive) | 21.5 µM (inactive) | 20.8 µM (inactive) | 26.3 µM (inactive) | 16.4 µM (inactive) | 17.6 µM (inactive) | 26.4 µM (inactive) | 29.7 µM (inactive) | 21.3 µM (inactive)
3 | CCC12CN(C(=O)OC)C3C(Br)C1CCC(=O)C32 (stereo not given) | > 100 µM (inactive) | > 100 µM (inactive) | > 100 µM (inactive) | > 100 µM (inactive) | > 100 µM (inactive) | > 100 µM (inactive) | > 100 µM (inactive) | > 100 µM (inactive) | > 100 µM (inactive) | > 100 µM (inactive) | > 100 µM (inactive) | > 100 µM (inactive) | > 100 µM (inactive) | > 100 µM (inactive) | > 100 µM (inactive) | > 100 µM (inactive) | > 100 µM (inactive) | > 100 µM (inactive) | > 100 µM (inactive) | > 100 µM (inactive)
4 | O=C(O)CCC(NC(=O)OCc1ccccc1)C(=O)NC(Cc1c[nH]cn1)C(=O)O (stereo not drawn) (Cbz-Glu-His-OH; configuration not given here) | > 100 µM (inactive) | > 100 µM (inactive) | > 100 µM (inactive) | > 100 µM (inactive) | > 100 µM (inactive) | > 100 µM (inactive) | 37.1 µM (inactive) | > 100 µM (inactive) | > 100 µM (inactive) | > 100 µM (inactive) | > 100 µM (inactive) | > 100 µM (inactive) | > 100 µM (inactive) | > 100 µM (inactive) | > 100 µM (inactive) | > 100 µM (inactive) | > 100 µM (inactive) | > 100 µM (inactive) | > 100 µM (inactive) | > 100 µM (inactive)
5 | CC(Cc1ccc(O)c(O)c1)C(C)Cc1ccc(O)c(O)c1 (stereo not given) [NORDIHYDROGUAIARETIC ACID] | 25.4 µM (inactive) | 22.5 µM (inactive) | 19.5 µM (inactive) | 21.2 µM (inactive) | 16.9 µM (inactive) | 18.8 µM (inactive) | > 39.1 µM (inactive) | 22.9 µM (inactive) | 17.1 µM (inactive) | 2.99 µM (inactive) | 13.6 µM (inactive) | 9.79 µM (inactive) | 23.6 µM (inactive) | 16.1 µM (inactive) | 21.9 µM (inactive) | 23.4 µM (inactive) | 9.55 µM (inactive) | 20.2 µM (inactive) | 18.9 µM (inactive) | 13.7 µM (inactive)
6 | COc1ccc(OC)c(Cc2cnc3nc(N)nc(N)c3c2C)c1 [PIRITREXIM ISETHIONATE] | < 0.01 µM (active) | 2.19 µM (inactive) | 0.236 µM (active) | 16.1 µM (inactive) | 15.1 µM (inactive) | 0.284 µM (active) | 15.3 µM (inactive) | < 0.0168 µM (active) | 0.243 µM (active) | < 0.01 µM (active) | 2.06 µM (inactive) | 0.03 µM (active) | 13.5 µM (inactive) | < 0.01 µM (active) | 0.0353 µM (active) | 19.5 µM (inactive) | 0.24 µM (active) | 0.634 µM (active) | < 0.0231 µM (active) | 0.533 µM (active)
